Results as given in PubChem BioAssay (NCI).
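These data come from cells grown in 96-well plates and exposed to compound for 48 hours at five concentrations. At the GI50, growth is halved. Definition used: TGI = concentration required for complete inhibition of growth.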

Tests used:
Experiment in all cases: NCI anticancer screen, dose series, 48 h
LOX IMVI melanoma = test system: LOX IMVI melanoma
IGROV1 ovarian = test system: IGROV1 ovarian
A549 NSCLC = test system: A549 NSCLC
SK-OV-3 ovarian = test system: SK-OV-3 ovarian
NCI/ADR-RES ovarian = test system: NCI/ADR-RES ovarian
SK-MEL-5 melanoma = test system: SK-MEL-5 melanoma
SN12C renal = test system: SN12C renal
SNB-19 CNS = test system: SNB-19 CNS
NCI-H23 lung = test system: NCI-H23 lung
SK-MEL-28 melanoma = test system: SK-MEL-28 melanoma
OVCAR-8 ovarian = test system: OVCAR-8 ovarian
TK-10 renal = test system: TK-10 renal
MCF7 breast = test system: MCF7 breast
A498 renal = test system: A498 renal
SF-268 CNS = test system: SF-268 CNS
HS 578T breast = test system: HS 578T breast
RPMI-8226 leukemia = test system: RPMI-8226 leukemia
NCI-H460 lung = test system: NCI-H460 lung
MDA-MB-435 = test system: MDA-MB-435
HCT-15 colon = test system: HCT-15 colon
KM12 colon = test system: KM12 colon
K-562 leukemia = test system: K-562 leukemia
OVCAR-3 ovarian = test system: OVCAR-3 ovarian
CCRF-CEM leukemia = test system: CCRF-CEM leukemia
SR leukemia = test system: SR leukemia
EKVX NSCLC = test system: EKVX NSCLC
HOP-92 NSCLC = test system: HOP-92 NSCLC
DU-145 prostate = test system: DU-145 prostate
M14 melanoma = test system: M14 melanoma
HCC-2998 colon = test system: HCC-2998 colon
HCT-116 colon = test system: HCT-116 colon
MDA-MB-231 breast = test system: MDA-MB-231 breast
UO-31 renal = test system: UO-31 renal
CAKI-1 renal = test system: CAKI-1 renal
NCI-H522 lung = test system: NCI-H522 lung
OVCAR-5 ovarian = test system: OVCAR-5 ovarian
ACHN renal = test system: ACHN renal
SF-539 CNS = test system: SF-539 CNS
SNB-75 CNS = test system: SNB-75 CNS
SF-295 CNS = test system: SF-295 CNS
HT29 colon = test system: HT29 colon
UACC-257 melanoma = test system: UACC-257 melanoma
HL-60(TB) leukemia = test system: HL-60(TB) leukemia
SW-620 colon = test system: SW-620 colon
OVCAR-4 ovarian = test system: OVCAR-4 ovarian
MOLT-4 leukemia = test system: MOLT-4 leukemia
PC-3 prostate = test system: PC-3 prostate
MALME-3M melanoma = test system: MALME-3M melanoma
U251 CNS = test system: U251 CNS
UACC-62 melanoma = test system: UACC-62 melanoma
SK-MEL-2 melanoma = test system: SK-MEL-2 melanoma
HOP-62 NSCLC = test system: HOP-62 NSCLC
RXF 393 renal = test system: RXF 393 renal
COLO 205 colon = test system: COLO 205 colon
BT-549 breast = test system: BT-549 breast
786-0 renal = test system: 786-0 renal
NCI-H226 lung = test system: NCI-H226 lung

O=S(=O)(Nc1cccc2ccccc12)c1ccc(-c2cnc(C3CC3)o2)cc1
GI50 (LOX IMVI melanoma): 48.8 nM
TGI (LOX IMVI melanoma): 26000 nM
GI50 (IGROV1 ovarian): 62.6 nM
TGI (IGROV1 ovarian): > 100000 nM
GI50 (A549 NSCLC): 141 nM
TGI (A549 NSCLC): > 100000 nM
GI50 (SK-OV-3 ovarian): 2190 nM
TGI (SK-OV-3 ovarian): > 85800 nM
GI50 (NCI/ADR-RES ovarian): 45.5 nM
TGI (NCI/ADR-RES ovarian): 16700 nM
GI50 (SK-MEL-5 melanoma): 56.8 nM
TGI (SK-MEL-5 melanoma): 3410 nM
GI50 (SN12C renal): 508 nM
TGI (SN12C renal): > 64600 nM
GI50 (SNB-19 CNS): 63 nM
TGI (SNB-19 CNS): > 100000 nM
GI50 (NCI-H23 lung): 186 nM
TGI (NCI-H23 lung): 31500 nM
GI50 (SK-MEL-28 melanoma): 3440 nM
TGI (SK-MEL-28 melanoma): > 100000 nM
GI50 (OVCAR-8 ovarian): 347 nM
TGI (OVCAR-8 ovarian): > 100000 nM
GI50 (TK-10 renal): 19700 nM
TGI (TK-10 renal): > 100000 nM
GI50 (MCF7 breast): 32.9 nM
TGI (MCF7 breast): > 57700 nM
GI50 (A498 renal): 33.4 nM
TGI (A498 renal): 500 nM
GI50 (SF-268 CNS): 716 nM
TGI (SF-268 CNS): > 100000 nM
GI50 (HS 578T breast): 56.3 nM
TGI (HS 578T breast): > 76100 nM
GI50 (RPMI-8226 leukemia): 53.6 nM
TGI (RPMI-8226 leukemia): 20000 nM
GI50 (NCI-H460 lung): 43.5 nM
TGI (NCI-H460 lung): 12600 nM
GI50 (MDA-MB-435): 24.3 nM
TGI (MDA-MB-435): 85.4 nM
GI50 (HCT-15 colon): 50.5 nM
TGI (HCT-15 colon): > 42000 nM
GI50 (KM12 colon): 49.8 nM
TGI (KM12 colon): 14900 nM
GI50 (K-562 leukemia): 41.7 nM
TGI (K-562 leukemia): > 73200 nM
GI50 (OVCAR-3 ovarian): 42.5 nM
TGI (OVCAR-3 ovarian): 15700 nM
GI50 (CCRF-CEM leukemia): 41.2 nM
TGI (CCRF-CEM leukemia): > 100000 nM
GI50 (SR leukemia): 40.2 nM
TGI (SR leukemia): > 34300 nM
GI50 (EKVX NSCLC): 276 nM
TGI (EKVX NSCLC): > 91400 nM
GI50 (HOP-92 NSCLC): < 19.3 nM
TGI (HOP-92 NSCLC): 4790 nM
GI50 (DU-145 prostate): 144 nM
TGI (DU-145 prostate): > 100000 nM
GI50 (M14 melanoma): 76.4 nM
TGI (M14 melanoma): > 48500 nM
GI50 (HCC-2998 colon): 220 nM
TGI (HCC-2998 colon): 23900 nM
GI50 (HCT-116 colon): 47.3 nM
TGI (HCT-116 colon): > 74500 nM
GI50 (MDA-MB-231 breast): 389 nM
TGI (MDA-MB-231 breast): > 48700 nM
GI50 (UO-31 renal): 74.5 nM
TGI (UO-31 renal): > 59200 nM
GI50 (CAKI-1 renal): 46.3 nM
TGI (CAKI-1 renal): > 81700 nM
GI50 (NCI-H522 lung): 61.2 nM
TGI (NCI-H522 lung): 24000 nM
GI50 (OVCAR-5 ovarian): 450 nM
TGI (OVCAR-5 ovarian): > 100000 nM
GI50 (ACHN renal): 68.4 nM
TGI (ACHN renal): > 100000 nM
GI50 (SF-539 CNS): 42.3 nM
TGI (SF-539 CNS): 2070 nM
GI50 (SNB-75 CNS): 30.1 nM
TGI (SNB-75 CNS): 82500 nM
GI50 (SF-295 CNS): 40.1 nM
TGI (SF-295 CNS): 15600 nM
GI50 (HT29 colon): 48.4 nM
TGI (HT29 colon): > 68900 nM
GI50 (UACC-257 melanoma): 5940 nM
TGI (UACC-257 melanoma): 45700 nM
GI50 (HL-60(TB) leukemia): 30.1 nM
TGI (HL-60(TB) leukemia): 388 nM
GI50 (SW-620 colon): 48.9 nM
TGI (SW-620 colon): > 100000 nM
GI50 (OVCAR-4 ovarian): 88 nM
TGI (OVCAR-4 ovarian): > 100000 nM
GI50 (MOLT-4 leukemia): 101 nM
TGI (MOLT-4 leukemia): > 49400 nM
GI50 (PC-3 prostate): 47.4 nM
TGI (PC-3 prostate): > 59900 nM
GI50 (MALME-3M melanoma): 12100 nM
TGI (MALME-3M melanoma): 67300 nM
GI50 (U251 CNS): 74.5 nM
TGI (U251 CNS): 97100 nM
GI50 (UACC-62 melanoma): 40.2 nM
TGI (UACC-62 melanoma): 23500 nM
GI50 (SK-MEL-2 melanoma): 2420 nM
TGI (SK-MEL-2 melanoma): 56500 nM
GI50 (HOP-62 NSCLC): 99.5 nM
TGI (HOP-62 NSCLC): > 89700 nM
GI50 (RXF 393 renal): 23.7 nM
TGI (RXF 393 renal): 141 nM
GI50 (COLO 205 colon): 99 nM
TGI (COLO 205 colon): 1350 nM
GI50 (BT-549 breast): 4200 nM
TGI (BT-549 breast): 34800 nM
GI50 (786-0 renal): 71.2 nM
TGI (786-0 renal): > 82900 nM
GI50 (NCI-H226 lung): 106 nM
TGI (NCI-H226 lung): 30600 nM
